Results taken from US20240279687A1, “PEPTIDE NUCLEIC ACIDS FOR SPATIOTEMPORAL CONTROL OF CRISPR-CAS BINDING” (Yale University, priority 2021, published 2024).
{Lys} = L-lysine residue attached to the PNA terminus

Legend:
[1] = test system: Cas9 RNP (FANCF, EMX1, ZSCAN2, CCR5, VEGFA gRNAs); test: On-target specificity of Cas9 RNP (ratio of on-target to off-target editing rates); type: cell-based, human
Experimental: (§1) For PNA pre-treatments, 1×10^6 cells and 1 μL of PNA diluted to desired concentration in water were similarly nucleofected using Lonza cell line kits and 4D-Nucleofector. PNA nucleofected cells were resuspended in 1.25 mL of complete media in 1.5 mL tubes and incubated at 37° C. for 2 hours before Cas9 RNP nucleofection as described above. After Cas9 RNP nucleofection cells were seeded in 2 mL of complete media and incubated for 96 hours prior to harvesting and analysis.
(§2) Genomic DNA was purified from 0.5×10^6 cells using Promega ReliaPrep gDNA Tissue Miniprep System (A2052) and eluted in 50 μL of water. Library prep used 100 ng of gDNA input with Ampliseq for Illumina Library Plus kit (20019101, Illumina) and used a custom primer pool designed to amplify a designed panel of genomic targets of interest (Table 9). Libraries were indexed, pooled, and loaded onto a Mid-output (300-cycles, Illumina, FC-420-1004) cartridge for paired-end sequencing on an Illumina Miniseq instrument. FASTQ reads were subjected to quality analysis (Basespace FASTQC) and analyzed for indel frequency using Cas-Analyzer assessment tool (parameters: Comparison range (R)—both ends of full amplicon sequence, Minimum frequency (n)=1). gRNAs used in this study are listed in Table 8, amplicon genomic coordinates listed in Table 9.
In the case of EMX1 ON and OFF target amplicons, both regions were amplified from 200 ng of purified gDNA by Phusion High-Fidelity Polymerase (NEB, M0530S) and pooled and purified using QIAGEN PCR purification kit (28104, Qiagen). Library prep used 200 ng of purified amplicon input with Illumina DNA Prep kit (20025519, Illumina). EMX1 libraries were similarly indexed, pooled, sequenced, and analysed as above.
For pre-annealed PAM-distal PNA experiments, 50 pmol of sgRNA and 50 pmol of PAM-distal 10mer PNAs were incubated in a thermocycler at 37° C. for 30 minutes in a 5 μL reaction in 1×3.1 Buffer (B7203S, NEB) to allow annealing. PNA annealing to sgRNAs was confirmed by gel shift on 5% polyacrylamide gel. 45 pmol of SpCas9 (CP02, PNA BIO) was then added at room temperature and incubated for 10 minutes to allow RNP formation. Resulting reaction was delivered to 1×10^6 K562 cells by a single nucleofection and treated as described above.

[2] = test system: Cas9 RNP, FANCF sgRNA, FANCF ON site; test: FANCF on-target editing in K562 cells (amplicon sequencing); type: cell-based, human
Experimental: For Cas9 RNP assembly, 50 pmol of sgRNA (IDT, Alt-R CRISPR-Cas9 sgRNA) and 45 pmol of SpCas9 (CPO2, PNA BIO) were incubated at room temperature for 10 minutes in a 5 μL reaction in 1×3.1 Buffer (B7203S, NEB). For nucleofections, 1×10^6 cells, 5 μL Cas9 RNP, and 1 μL of Alt-R Cas9 electroporation enhancer (IDT) were resuspended in 100 μL of Lonza cell line solution (V4XC-2024/V4XC-1024, Lonza) and nucleofected using a Lonza 4D-Nucleofector X unit. Cas9 RNP treated cells were seeded in 2 mL of complete media and incubated for 96 hours prior to harvesting for analysis. […]
(§3) Genomic DNA was purified from 0.5×10^6 cells using Promega ReliaPrep gDNA Tissue Miniprep System (A2052) and eluted in 50 μL of water. […] FASTQ reads were subjected to quality analysis (Basespace FASTQC) and analyzed for indel frequency using Cas-Analyzer assessment tool (parameters: Comparison range (R)—both ends of full amplicon sequence, Minimum frequency (n)=1). gRNAs used in this study are listed in Table 8, amplicon genomic coordinates listed in Table 9.
(§4) 10^6 K562 cells were nucleofected (Lonza 4D Nucleofector) with specified dose (0-150 pmol) of FANCF PAM-distal 10mer PNA. […] Sequencing data was analyzed for indel frequency using a validated Cas-Analyzer tool (Park, et al., Bioinformatics 33, 286-288 (2017)).

[3] = test system: Cas9 RNP, FANCF sgRNA, FANCF OT1 site; test: FANCF off-target editing in K562 cells (amplicon sequencing); type: cell-based, human
Experimental: (§5) For Cas9 RNP assembly, 50 pmol of sgRNA (IDT, Alt-R CRISPR-Cas9 sgRNA) and 45 pmol of SpCas9 (CPO2, PNA BIO) were incubated at room temperature for 10 minutes in a 5 μL reaction in 1×3.1 Buffer (B7203S, NEB). For nucleofections, 1×10^6 cells, 5 μL Cas9 RNP, and 1 μL of Alt-R Cas9 electroporation enhancer (IDT) were resuspended in 100 μL of Lonza cell line solution (V4XC-2024/V4XC-1024, Lonza) and nucleofected using a Lonza 4D-Nucleofector X unit. Cas9 RNP treated cells were seeded in 2 mL of complete media and incubated for 96 hours prior to harvesting for analysis.
as §1
as §2, with “Libraries were indexed, pooled, and loaded onto a Mid-output (300-cycles, Illumina, FC-420-1004) cartridge for paired-end sequencing on an Illumina Miniseq instrument.” left out
as §4

[4] = test system: Cas9 RNP, ZSCAN2 sgRNA, ZSCAN2 ON site; test: ZSCAN2 on-target editing in K562 cells (amplicon sequencing); type: cell-based, human; settings: PNA pre-treatment 2 hours before Cas9 RNP (FIG. 10A: 50 pmol PNA)
Experimental: as §5
as §1, with “After Cas9 RNP nucleofection cells were seeded in 2 mL of complete media and incubated for 96 hours prior to harvesting and analysis.” left out
as §3

[5] = test system: Cas9 RNP, ZSCAN2 sgRNA, ZSCAN2 off-target site; test: ZSCAN2 off-target editing in K562 cells (amplicon sequencing); type: cell-based, human; settings: PNA pre-treatment 2 hours before Cas9 RNP (FIG. 10A: 50 pmol PNA)
Experimental: as §5
as §1, with “After Cas9 RNP nucleofection cells were seeded in 2 mL of complete media and incubated for 96 hours prior to harvesting and analysis.” left out
as §3

[6] = test system: Cas9 RNP using a sgRNA targeted to the BFP gene; test: Cas9 RNP editing of BFP reporter gene in K562-BFP cells (BFP fluorescent drop out, flow cytometry); type: cell-based, human; settings: 0-250 pmol nucleofected 2 hours prior to Cas9 RNP
Experimental: as §5, §1
K562 cells were spun down and resuspended in fresh complete media at 300,000 cells/mL 48 hours prior to analysis. Samples for flow cytometry were fixed in complete media with 1% formaldehyde for 15 minutes before spinning down, resuspending in 300 μL PBS, and filtering through a cell strainer capped tube. Samples were analyzed for BFP and GFP fluorescence using a Cytoflex LX instrument (Beckman Coulter) using PacificBlue and FITC lasers, respectively, and quantification and gating was done using FloJo v10 software. Background fluorescent drop out was determined by measurement of mock nucleofected lines in quadruplicate and subtracted from experimental values to determine reported editing frequency.
10^6 stable BFP-expressing K562 cells were nucleofected (Lonza 4D Nucleofector) with a specified dose of PNA or ssDNA oligo (0-250 pmol). Two hours later, all conditions were nucleofected with 45 pmol of purified Cas9 RNP using a sgRNA targeted to the BFP gene. 72 hours later, cells with BFP fluorescent drop out (via Cas9 indel formation) were quantified by flow cytometry (Beckman Coulter—Cytoflex instrument).
In time-course experiments in FIG. 3D, K562 samples were nucleofected with 5 μL RNP reactions with the addition of 100 pmol of ssODN donor in 1 μL of water. RNP nucleofected samples were incubated at 37° C. in complete media before being spun down and nucleofected with 250 pmol of PNA at specified time points. After PNA delivery cells were seeded in 2 mL of complete media and incubated for 96 hours prior to harvesting and analysis.
10^6 stable BFP-expressing K562 cells were nucleofected (Lonza 4D Nucleofector) with specified dose (0-250 pmol, or 250 pmol if unspecified) of specified PNA with sequences homologous to (antispacer) or identical to (cis-spacer) the BFP gRNA spacer sequence. Two hours later, all conditions were nucleofected with 45 pmol of purified Cas9 RNP using a sgRNA targeted to the BFP gene. 72 hours later, cells with BFP fluorescent drop out (via Cas9 indel formation) were quantified by flow cytometry (Beckman Coulter—Cytoflex instrument).
10^6 stable BFP-expressing K562 cells were nucleofected (Lonza 4D Nucleofector) with 45 pmol of purified Cas9 RNP using a sgRNA targeted to the BFP gene. At each specified time point 250 pmol of BFP Anti-protospacer PNA were introduced via nucleofection. For “Cas9 only” condition there was no second PNA nucleofection and for “0 hrs” 250 pmol of PNA was co-nucleofected with Cas9 in a single reaction. After each nucleofection samples were left in fresh media for the duration of the experiment to acquire edits. 72 hours after the “24 hrs” nucleofection, cells for all conditions with BFP fluorescent drop out (via Cas9 indel formation) were quantified by flow cytometry (Beckman Coulter—Cytoflex instrument).

[7] = test system: 20mer RNA oligonucleotide (spacer sequence designed to target the BFP gene); test: UV spectroscopy thermal melting analysis of duplexes; type: binding; settings: 1 μM each strand, 10 mM sodium phosphate buffer pH 7.4
Experimental: All samples were prepared by mixing a stoichiometric amount of each strand (1 μM) in 10 mM sodium phosphate buffer at pH 7.4 (Table 8). The samples were pre-annealed at 95° C. for 5 mins and gradually cooled to room temperature prior to the melting experiment. UV melting experiments were performed using a Shimadzu UV-3600 Plus UV-Vis-NIR spectrophotometer equipped with a thermoelectrically controlled multicell holder. UV melting spectra were recorded after every 1° C. temperature change by monitoring the absorbance at 260 nm from 20° C. to 110° C. to 20° C., with a heating/cooling ramp rate of 1.0° C./min. The heating and cooling curves were overlapped to confirm reversible denaturation. All spectra were plotted on Origin 2020 and smoothed using a 20-point adjacent averaging algorithm. The first derivative plots of the melting curves were generated to determine the melting temperature for each duplex.

[8] = test system: Cas9 RNP, CCR5 R30 sgRNA, CCR5 ON site; test: CCR5 on-target editing in K562 cells (amplicon sequencing); type: cell-based, human; settings: PNA pre-treatment 2 hours before Cas9 RNP (FIG. 10A: 50 pmol PNA)
Experimental: as §5
as §1, with “After Cas9 RNP nucleofection cells were seeded in 2 mL of complete media and incubated for 96 hours prior to harvesting and analysis.” left out
as §3

[9] = test system: Cas9 RNP, CCR5 R30 sgRNA, CCR2 off-target site; test: CCR5 gRNA off-target editing in the CCR2 gene in K562 cells (amplicon sequencing); type: cell-based, human; settings: PNA pre-treatment 2 hours before Cas9 RNP (FIG. 10A: 50 pmol PNA)
Experimental: as §5
as §1, with “After Cas9 RNP nucleofection cells were seeded in 2 mL of complete media and incubated for 96 hours prior to harvesting and analysis.” left out
as §3

[10] = test system: BFP sgRNA and BFP Cas9 RNP; test: sgRNA binding assay (EMSA) with TAMRA dye-labeled PNA, BFP target
Experimental: (§6) 10 pmol of BFP or HBB sgRNA were incubated with or without 10 pmol of purified Cas9 (Sigma) in 20 μL of 1×NEB buffer 3.1 for 15 minutes at room temp. Then, specified doses of a TAMRA dye labeled antispacer BFP ssPNA was added to each reaction and tubes were incubated in thermocycler for 30 minutes at 37C. 5 μL of resulting reactions were run on pre-cast 5% polyacrylamide TBE gels (BIORAD). The gel was washed in 1×TBE buffer and imaged for TAMRA signal using a Gel Doc XR+ gel imager system (BIORAD). Gel was then incubated in 1×SYBR Gold in TBE for 5 minutes, washed in 1×TBE, and imaged for nucleic acid staining on Gel Doc XR+ imager. Resulting images were superimposed using ImageJ.

[11] = test system: HBB sgRNA and HBB Cas9 RNP; test: sgRNA binding assay (EMSA) with TAMRA dye-labeled PNA, HBB target; settings: heterologous spacer sequence (HBB target)
Experimental: as §6

Substance: K-CTTCTGCAGC-K (all peptide nucleic acid (PNA), 5' {Lys}, 3' {Lys}) [FANCF PAM-Distal 10 mer PNA]
- specificity ratio versus Cas9 only ([1]; K562, HEK293, and U2OS cell lines, PNA pre-treatment prior to Cas9 RNP nucleofection): significantly increased specificity ratios
- specificity versus pre-treatment approaches ([1]; PNA pre-annealed to sgRNA prior to Cas9 RNP formation, delivered as a single complex, K562): further improved specificity
- on-target editing ([2]; 50 pmol PNA (98.0% without PNA)): 93.2%
- reduction of on-target editing ([2]; 50 pmol, 1:1 PNA:sgRNA ratio): 4.9%
- difference in editing reduction, off-target versus on-target ([3]; 50 pmol): 11.6 fold
- off-target editing ([3]; 50 pmol PNA (7.13% without PNA)): 3.07%
- reduction of off-target editing ([3]; 50 pmol, 1:1 PNA:sgRNA ratio, compared to Cas9 RNP only): 57.1%

Substance: CTTGCCGCAC (all peptide nucleic acid (PNA); further chemistry not fully specified) [ZSCAN PAMdist 10 mer PNA, 1 Lysine (K) on either end]
- overall increase in specificity ([1]; K562 cells, PNA pre-treatment): not observed
- decrease of on-target editing [4]: 80.3%
- decrease of off-target editing [5]: 66.3%

Substance: ATGGCGTGCAGTGCTTCAGC (KKK-ATGGCGTGCAGTGCTTCAGC-KKK; as printed in the source, key not given here) [Anti-protospacer ssDNA oligo, reference compound]
- inhibitory effect on Cas9-mediated BFP gene disruption and indel formation [6]: entirely ineffective
- inhibitory effect on Cas9-mediated BFP gene disruption and indel formation ([6]; listed as antispacer DNA): no effect
- Tm of duplex with RNA spacer sequence [7]: 56 °C

Substance: TCCGCTCTAC (all peptide nucleic acid (PNA); further chemistry not fully specified) [CCR5 PAMdist 10 mer PNA, 1 Lysine (K) on either end]
- decrease of on-target editing [8]: 79.1%
- off-target editing in the CCR2 gene [9]: undetectable

Substance: TAMRA-KKK-ATGGCGTGCAGTGCTTCAGC-KKK (all peptide nucleic acid (PNA); N-terminal TAMRA dye, three lysines flank each end) [TAMRA BFP Antispacer PNA, TAMRA dye conjugated at N-terminus]
- additional binding at 20 pmol (2×) doses compared to 10 pmol ([10]; 10 pmol sgRNA, 10 pmol Cas9): no significant additional binding
- increase in PNA binding (TAMRA-Cas9 RNP gel bands) between 5 pmol (0.5×) and 10 pmol (1×) conditions ([10]; 10 pmol sgRNA, 10 pmol Cas9): 2.09 fold
- PNA-TAMRA signal co-localization with sgRNA and RNP bands ([10]; sequence-matched (BFP target)): strongly co-localized
- PNA-TAMRA signal co-localization with sgRNA and RNP bands [11]: not
